In data set [1] the test system is IR45. In words: imine reduction kinetics. The settings on record: read-out: F190L-W191F / K m; NADPH-dependent.
The subject of data set [2] is IR45. In words: imine reduction kinetics. Particulars: read-out: F190M-W191F / K m; NADPH-dependent.
Data set [3] concerns IR45. Kind of data set: imine reduction kinetics. The settings on record: read-out: IR45 / K m; NADPH-dependent.
Data set [4] concerns COc1cc2c(cc1OC)[C@H](c1ccc3c(c1)OCO3)NCC2. Kind of data set: purified protein. Particulars: co-substrate S-adenosylmethionine.
Data set [5] deals with COc1ccc(C[C@@H]2NCCc3cc(OC)c(OC)cc32)cc1OC. In words: purified protein. Particulars: co-substrate S-adenosylmethionine.

Broadly, the kcat is the maximal rate divided by the concentration of active sites.

Read-outs that look alike come from different tables or passages of the source.

For `COc1cc2c(cc1OC)C(c1ccc3c(c1)OCO3)=NCC2` [1a], the Km in data set [1] stood at 123 µM; in data set [2] it was 108 µM; in data set [3] it was 154 µM.

As for `COc1ccc(CC2=NCCc3cc(OC)c(OC)cc32)cc1OC` [5a], the Km in data set [1] was found to be 353 µM; in data set [2] it was 178 µM; in data set [3] it was 518 µM.

In the case of `COc1cc2c(cc1OC)C(Cc1ccccc1)=NCC2` [4a], the Km in data set [1] turned out to be 252 µM; in data set [2], 251 µM; in data set [3], 148 µM.

Regarding `COc1cc2c(cc1OC)C(c1cc(OC)c(OC)c(OC)c1)=NCC2` [3a], the Km in data set [1] came to 372 µM.

Consider `COc1ccc(C2=NCCc3cc(OC)c(OC)cc32)cc1OC` [2a], for which the Km in data set [1] turned out to be 307 µM.

Consider “Coclaurine N-methyltransferase (CNMT) (Coptis japonica)”, for which the Km in data set [4] came to 806 ± 198 µM; in data set [5], 807 ± 208 µM. Also, the kcat in data set [4] was determined as 0.098 ± 0.031 s⁻¹; in data set [5] it was 0.296 ± 0.042 s⁻¹.

These data come from article PMC7067268, “Biosynthesis of plant tetrahydroisoquinoline alkaloids through an imine reductase route” (Chemical Science, 2019).
